Assay results: the NIST ThermoML archive (doi:10.1021/je8000975)
Numbers after ± are expanded uncertainties.

Assays:
[1] = Liquid; for speed of sound: Sing-around technique in a fixed-path interferometer
[2] = xn = mol fraction of the nth substance listed; details: 101 kPa, Liquid

COCCOCCO [2-(2-methoxyethoxy)ethanol]
[1]
Details	mass density [kg/m3]	speed of sound [m/s]
293.15 K	1019.81 ± 1.3	1432.4 ± 2.1
298.15 K	1015.41 ± 1.3	1415.2 ± 2.1
303.15 K	1010.91 ± 1.2	1397.9 ± 2.1

COCCOCCO [2-(2-methoxyethoxy)ethanol] + COCCO
[2]
Details	mass density [kg/m3]
293.15 K, x2 = 0.1005	1016.02 ± 1
293.15 K, x2 = 0.1489	1014.09 ± 0.94
293.15 K, x2 = 0.1983	1012.06 ± 0.88
293.15 K, x2 = 0.2003	1011.98 ± 0.88
293.15 K, x2 = 0.2517	1009.77 ± 0.82
293.15 K, x2 = 0.2969	1007.77 ± 0.76
293.15 K, x2 = 0.2993	1007.67 ± 0.76
293.15 K, x2 = 0.3475	1005.45 ± 0.71
293.15 K, x2 = 0.3505	1005.31 ± 0.7
293.15 K, x2 = 0.3985	1003.01 ± 0.65
293.15 K, x2 = 0.45	1000.45 ± 0.6
293.15 K, x2 = 0.5003	997.85 ± 0.56
293.15 K, x2 = 0.5998	992.362 ± 0.51
293.15 K, x2 = 0.6476	989.566 ± 0.49
293.15 K, x2 = 0.6993	986.398 ± 0.47
293.15 K, x2 = 0.7475	983.311 ± 0.46
293.15 K, x2 = 0.7485	983.242 ± 0.46
293.15 K, x2 = 0.7971	979.992 ± 0.44
293.15 K, x2 = 0.8465	976.527 ± 0.43
293.15 K, x2 = 0.8977	972.767 ± 0.43
293.15 K, x2 = 0.9483	968.858 ± 0.42
298.15 K, x2 = 0.0523	1013.47 ± 1.1
298.15 K, x2 = 0.1027	1011.52 ± 0.98
298.15 K, x2 = 0.1523	1009.54 ± 0.92
298.15 K, x2 = 0.1974	1007.67 ± 0.86
298.15 K, x2 = 0.2507	1005.39 ± 0.8
298.15 K, x2 = 0.294	1003.47 ± 0.75
298.15 K, x2 = 0.3472	1001.02 ± 0.69
298.15 K, x2 = 0.3976	998.612 ± 0.64
298.15 K, x2 = 0.4502	995.991 ± 0.61
298.15 K, x2 = 0.4981	993.508 ± 0.58
298.15 K, x2 = 0.5	993.405 ± 0.57
298.15 K, x2 = 0.5455	990.948 ± 0.55
298.15 K, x2 = 0.5989	987.943 ± 0.52
298.15 K, x2 = 0.6471	985.114 ± 0.5
298.15 K, x2 = 0.7005	981.838 ± 0.48
298.15 K, x2 = 0.749	978.717 ± 0.47
298.15 K, x2 = 0.7983	975.395 ± 0.45
298.15 K, x2 = 0.846	972.046 ± 0.45
298.15 K, x2 = 0.8832	969.324 ± 0.44
298.15 K, x2 = 0.8956	968.391 ± 0.44
298.15 K, x2 = 0.9483	964.311 ± 0.43
303.15 K, x2 = 0.0536	1008.92 ± 1
303.15 K, x2 = 0.1018	1007.06 ± 0.97
303.15 K, x2 = 0.15	1005.13 ± 0.9
303.15 K, x2 = 0.2011	1003.02 ± 0.84
303.15 K, x2 = 0.2499	1000.92 ± 0.78
303.15 K, x2 = 0.2515	1000.85 ± 0.78
303.15 K, x2 = 0.301	998.636 ± 0.73
303.15 K, x2 = 0.3527	996.24 ± 0.69
303.15 K, x2 = 0.3986	994.036 ± 0.65
303.15 K, x2 = 0.4493	991.5 ± 0.62
303.15 K, x2 = 0.5028	988.711 ± 0.58
303.15 K, x2 = 0.5499	986.158 ± 0.56
303.15 K, x2 = 0.6	983.323 ± 0.53
303.15 K, x2 = 0.6482	980.488 ± 0.51
303.15 K, x2 = 0.6941	977.672 ± 0.49
303.15 K, x2 = 0.7485	974.182 ± 0.48
303.15 K, x2 = 0.7979	970.854 ± 0.47
303.15 K, x2 = 0.8989	963.546 ± 0.45
303.15 K, x2 = 0.9476	959.766 ± 0.45

CCCCOCCO [2-butoxyethan-1-ol]
[1]
Details	mass density [kg/m3]	speed of sound [m/s]
293.15 K	900.094 ± 1.5	1322.5 ± 2.1
298.15 K	895.91 ± 1.5	1304.9 ± 2.1
303.15 K	891.697 ± 1.5	1288 ± 2.1

CCCCOCCO [2-butoxyethan-1-ol] + COCCO
[2]
Details	mass density [kg/m3]
293.15 K, x2 = 0.0524	902.021 ± 1.2
293.15 K, x2 = 0.1023	903.942 ± 1.1
293.15 K, x2 = 0.1513	905.929 ± 1.1
293.15 K, x2 = 0.2009	908.026 ± 1
293.15 K, x2 = 0.2491	910.172 ± 0.97
293.15 K, x2 = 0.3006	912.586 ± 0.92
293.15 K, x2 = 0.3411	914.561 ± 0.89
293.15 K, x2 = 0.3986	917.531 ± 0.84
293.15 K, x2 = 0.4484	920.249 ± 0.8
293.15 K, x2 = 0.4994	923.189 ± 0.75
293.15 K, x2 = 0.5492	926.262 ± 0.71
293.15 K, x2 = 0.5987	929.459 ± 0.68
293.15 K, x2 = 0.6489	932.911 ± 0.64
293.15 K, x2 = 0.7291	938.888 ± 0.58
293.15 K, x2 = 0.7487	940.45 ± 0.57
293.15 K, x2 = 0.7996	944.683 ± 0.53
293.15 K, x2 = 0.8491	949.097 ± 0.5
293.15 K, x2 = 0.8992	953.883 ± 0.47
293.15 K, x2 = 0.9495	959.058 ± 0.45
298.15 K, x2 = 0.0522	897.844 ± 1.2
298.15 K, x2 = 0.1029	899.781 ± 1.1
298.15 K, x2 = 0.15	901.679 ± 1.1
298.15 K, x2 = 0.2019	903.86 ± 1
298.15 K, x2 = 0.2489	905.939 ± 0.98
298.15 K, x2 = 0.2999	908.306 ± 0.93
298.15 K, x2 = 0.3514	910.818 ± 0.89
298.15 K, x2 = 0.3994	913.289 ± 0.85
298.15 K, x2 = 0.449	915.99 ± 0.81
298.15 K, x2 = 0.4755	917.493 ± 0.78
298.15 K, x2 = 0.4987	918.836 ± 0.77
298.15 K, x2 = 0.5985	925.072 ± 0.69
298.15 K, x2 = 0.6476	928.432 ± 0.65
298.15 K, x2 = 0.6975	932.045 ± 0.62
298.15 K, x2 = 0.7481	935.968 ± 0.58
298.15 K, x2 = 0.7988	940.157 ± 0.55
298.15 K, x2 = 0.8476	944.484 ± 0.52
298.15 K, x2 = 0.8993	949.386 ± 0.48
298.15 K, x2 = 0.9478	954.336 ± 0.46
303.15 K, x2 = 0.0483	893.466 ± 1.2
303.15 K, x2 = 0.1002	895.434 ± 1.1
303.15 K, x2 = 0.1519	897.493 ± 1.1
303.15 K, x2 = 0.1997	899.493 ± 1
303.15 K, x2 = 0.2393	901.221 ± 0.99
303.15 K, x2 = 0.2476	901.59 ± 0.99
303.15 K, x2 = 0.3501	906.436 ± 0.9
303.15 K, x2 = 0.3985	908.906 ± 0.86
303.15 K, x2 = 0.4499	911.682 ± 0.81
303.15 K, x2 = 0.4966	914.34 ± 0.78
303.15 K, x2 = 0.5031	914.737 ± 0.77
303.15 K, x2 = 0.6119	921.563 ± 0.69
303.15 K, x2 = 0.6471	923.963 ± 0.67
303.15 K, x2 = 0.7275	929.874 ± 0.61
303.15 K, x2 = 0.7491	931.575 ± 0.59
303.15 K, x2 = 0.7969	935.498 ± 0.56
303.15 K, x2 = 0.8463	939.82 ± 0.53
303.15 K, x2 = 0.8986	944.764 ± 0.5
303.15 K, x2 = 0.9475	949.713 ± 0.47
